From publication PMC5062570 (Nature Communications, 2016)
“Also recorded” adds a separate entry of the source. Where two headings read alike, the source gives them in different places.

Assays:
[1] = tested on: aspartyl proteases (BACE2, cathepsin D, cathepsin E, pepsin and renin); conditions: assays with purified proteins; cited from earlier work
[2] = tested on: retinal pigment epithelium (RPE); experiment: Ocular toxicity, retinal histology in wild-type and BACE1 knockout mice; conditions: 80 mg kg-1 daily; for WT ocular toxicity incidence (positive or negative animals / total evaluated) / WT ocular toxicity outcome: wild-type mice
Experimental: All experiments and procedures involving animals were conducted as per the established guidelines and protocols that were reviewed and approved by the Pfizer Institutional Animal Care and Use Committee. […] Animals were housed at an Association for Assessment and Accreditation of Laboratory Animal Care International accredited facility in species-specific housing. Sample number was adequately powered for exploratory toxicology studies based on consistent internal practice. Clinically acceptable animals were selected for exploratory toxicology studies and assigned to groups using a computer-assisted randomization procedure based on body weights. For the fluorescent microscopic evaluation of the eyes, animals from the control group were initially evaluated in an unblinded fashion to provide the investigator an understanding of the baseline amount of autofluorescence typical for vehicle-treated animals in the study. A subsequent blinded evaluation of all animals in the study including controls was then performed to identify individuals that were outside the normal range established by the initial unblinded control group review.
After fixation for a minimum of 2 days, each eye was sectioned in half along the mid-sagittal plane with one half being embedded cut side down in a paraffin wax block and the other half returned to fixative. Paraffin blocks were sectioned at 4–5 μm using a microtome and the resulting sections were placed on glass slides, stained with H&E and coverslipped.

[3] = pKa determination by multiplexed capillary electrophoresis; format: physicochemical; conditions: aqueous buffers
Experimental: All pKa values were determined at Analiza, Inc. by multiplexed capillary electrophoresis (mCE) using 96-capillary array electrophoresis instrument to measure the effective mobility (migration time of the compound in relation to neutral marker, DMSO) with ultraviolet detection. The pKa values were obtained from the ionization curves by plotting the compound effective mobility (24 points across pH range 1.7–11.2) versus pH. All pKa results were determined using aqueous buffers with method average absolute error 0.12.

CatD = conditions: cited from earlier work
[4] = Plasma exposure (average unbound plasma concentration) in rats; format: in vivo, rat; conditions: for Exposure: rat exploratory toxicology studies; for Avg Cp,u metabolite: active metabolite of the dosed compound
Experimental: Wistar Han rats (obtained from Charles River, 125–300 g, 6–9 weeks old at study start, see Supplementary Table 7 for number of males and females) received daily oral dosing of test compounds or vehicle at the indicated concentrations for 7–29 days as indicated. The doses were prepared in a solution of 0.5% methylcellulose and 0.2% polysorbate 80, or 0.5% methylcellulose and hydroxypropyl methylcellulose acetate succinate (high fine grade) and delivered in a volume of 10 ml kg^−1 per day. Blood samples for bioanalytical analysis were collected in K2EDTA tubes via jugular vessel. Plasma was isolated after centrifugation and stored at −20 °C prior to analysis. Animals were given an additional dose the day after the end of the study (days 8, 15 or 30 for 7, 14 and 29 day studies, respectively) then killed by gas anaesthesia (isoflurane) followed by exsanguination ∼3 h after this final dose.
Plasma samples were analysed after protein precipitation by treating 20 μl of sample matrix with 200 μl of acetonitrile containing internal standard. All samples were centrifuged at 3,000 r.p.m. for 5 min. Then 100 μl of supernatant was transferred to a clean plate and evaporated to dryness under N2. Samples were reconstituted in 200 μl of 80:20 (v:v) acetonitrile:water. Samples were analysed on Waters Acquity UPLC connected to AB Sciex API5500 QTrap MS/MS.
Plasma protein binding was determined in the Rapid Equilibrium Device (RED, Thermo Scientific). Frozen plasma was warmed to 37 °C and adjusted to pH 7.4. The plasma was spiked with compound to a final concentration of 2 μM. Aliquots of spiked plasma were added to the donor (red) side, followed by addition of buffer to the receiver (white) side. The RED device was covered with a gas-permeable membrane and agitated within a humidified CO2 incubator (5% CO2, 75% relative humidity). Plasma (15 μl) and buffer (45 μl) were sampled from each insert and were matrix-matched with appropriate blank matrix (plasma with 45 μl buffer and buffer with 15 μl of plasma). Samples were protein-precipitated with acetonitrile containing internal standard, and the resulting supernatant was analysed by LC-MS/MS.

BACE2 = conditions: purified aspartyl proteases; not previously disclosed
[5] = tested on: mRNA levels (CTSD, CTSB, CTSF, BACE1, GBA, TFEB) in ARPE-19 cells; experiment: qRT-PCR of inhibitor-treated ARPE-19 cells; format: cell-based, human; conditions: 7 days
CatE [6] = conditions: purified aspartyl proteases; not previously disclosed
purified CatD = target: T1, purified CatD (Homo sapiens, UniProt P07339); experiment: PF-7802 labelling of purified CatD (probe-based competition); format: binding; conditions: 250 nM purified human mature CatD, NaOAc pH 4.5, PF-7802 100 nM
T1 construct: final maturation into a non-covalently associated heavy chain and light chain; purchased Sigma C8696; host or cells: human liver
T1 sequence (P07339 65-162 limits assumed): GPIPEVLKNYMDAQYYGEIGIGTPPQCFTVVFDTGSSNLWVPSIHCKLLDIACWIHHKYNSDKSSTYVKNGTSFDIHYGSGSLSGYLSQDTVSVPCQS
T1 sequence (P07339 169-412 limits assumed): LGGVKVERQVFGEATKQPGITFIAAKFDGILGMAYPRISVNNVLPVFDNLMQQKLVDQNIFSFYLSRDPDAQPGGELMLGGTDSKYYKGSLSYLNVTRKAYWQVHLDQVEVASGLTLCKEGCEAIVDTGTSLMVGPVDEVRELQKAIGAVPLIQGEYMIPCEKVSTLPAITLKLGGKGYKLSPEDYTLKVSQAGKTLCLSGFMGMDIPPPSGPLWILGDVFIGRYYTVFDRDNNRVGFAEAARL
Experimental: Purified CatD (Sigma C8696, isolated from human liver) or proCatD (R&D systems 1014-AS) was reconstituted and diluted to 250 nM in NaOAc buffer (50 mM, pH 4.5, 0.0001% Tween-20). […] Samples were analysed by in-gel fluorescence scanning and western blot with an α-CatD antibody (R&D Systems AF-1014) as described above for CatD knockdown.

CatE [7] = target: T2, CatE (Homo sapiens, UniProt P14091); experiment: CatE purified enzyme fluorescence polarization assay; format: biochemical
T2 construct: purchased Creative BioMart CTSE-255H
T2 sequence (P14091 54-396): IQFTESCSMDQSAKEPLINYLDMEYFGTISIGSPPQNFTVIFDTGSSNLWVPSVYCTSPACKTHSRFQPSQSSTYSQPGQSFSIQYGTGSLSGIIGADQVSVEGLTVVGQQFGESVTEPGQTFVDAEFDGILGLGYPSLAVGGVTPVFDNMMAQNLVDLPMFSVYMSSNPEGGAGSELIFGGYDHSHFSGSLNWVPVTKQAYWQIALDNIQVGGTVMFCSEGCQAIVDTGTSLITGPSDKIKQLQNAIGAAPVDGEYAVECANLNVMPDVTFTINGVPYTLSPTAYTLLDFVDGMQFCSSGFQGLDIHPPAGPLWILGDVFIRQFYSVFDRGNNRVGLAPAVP
Experimental: Purified enzyme inhibition of BACE1, BACE2, CatD and CatE was determined using fluorescence polarization (FP) assays. Briefly, purified enzymes were treated with test compounds (1% DMSO, 37 °C) in the presence of synthetic peptide substrates (150 nM) in 30 μl total volume of NaOAc buffer (100 mM, pH 4.5, 0.0001% Tween-20) in a 384-well plate. After incubation, reactions were stopped and substrate captured by the addition of 1.5 μM streptavidin, and FP measured with an EnVision plate reader (PerkinElmer, excitation 485 nm, emission 530 nm). […] BACE2 activity was assessed with 0.5 nM recombinant BACE2 (R&D Systems 4097-AS) and the same synthetic substrate used for BACE1, with a 1 h incubation time. […] CatE activity was assessed with 1.0 nM recombinant CatE (Creative BioMart CTSE-255H) and the same synthetic substrate used for CatD, with a 1.5 h incubation time.

Cc1cc([C@H]2C[C@H]3[C@@H](C)SC(N)=N[C@@]3(c3ccc(F)cc3F)CO2)on1 [PF-9283]
Selectivity for BACE1 over cathepsins D and E [1]: more than 200 fold
BACE1(-/-) ocular toxicity incidence (positive or negative animals / total evaluated) ([2]; BACE1(-/-) mice, 14 days): 4/5
BACE1(-/-) ocular toxicity outcome ([2]; BACE1(-/-) mice, 14 days): Pos
Retinal finding by fluorescence microscopy ([2]; BACE1(-/-) mice, 14 days): accumulated autofluorescent granules were observed
BACE1(-/-) ocular toxicity incidence (positive or negative animals / total evaluated) ([2]; BACE1(-/-) mice, 30 days): 6/6
BACE1(-/-) ocular toxicity outcome ([2]; BACE1(-/-) mice, 30 days): Pos
WT ocular toxicity incidence (positive or negative animals / total evaluated) ([2]; 2 days): 5/5
WT ocular toxicity outcome ([2]; 2 days): Neg
WT ocular toxicity incidence (positive or negative animals / total evaluated) ([2]; 4 days): 1/5
WT ocular toxicity outcome ([2]; 4 days): Pos
WT ocular toxicity incidence (positive or negative animals / total evaluated) ([2]; 7 days): 6/6
WT ocular toxicity outcome ([2]; 7 days): Pos
WT ocular toxicity incidence (positive or negative animals / total evaluated) ([2]; 14 days): 5/5
WT ocular toxicity outcome ([2]; 14 days): Pos
WT ocular toxicity incidence (positive or negative animals / total evaluated) ([2]; 30 days): 6/6
WT ocular toxicity outcome ([2]; 30 days): Pos
pKa [3]: 7.7
selectivity ratio (CatD): 210
concentration at 14 days ([4]; Wistar Han, oral, rat, 14 days, 30 mg kg-1 once daily, average unbound plasma concentration, read-out: Avg Cp,u parent): 29 nM
Exposure [4]: unexpectedly low exposures
Fold selectivity for BACE1 over BACE2 (BACE2): 1.9 fold
mRNA level changes (qRT-PCR) [5]: did not display changes in mRNA levels; also recorded: no changes in CatD mRNA levels
Fold selectivity for BACE1 over CatE (CatE [6]): 320 fold
Competition of PF-7802 labelling of purified mature CatD (purified CatD): competed by pretreatment with PF-9283 in a concentration-dependent manner; also recorded: concentration-dependently competed
IC50 (CatE [7]): 24 µM

Cc1cc([C@H]2C[C@H]3[C@@H](CF)SC(N)=N[C@@]3(c3ccc(F)cc3F)CO2)on1 [PF-3195]
pKa [3]: 7.0
Exposure [4]: unexpectedly low exposures
Avg Cp,u metabolite ([4]; rat, 14 days, 15 mg kg-1 once daily): 460 nM
concentration at 29 days ([4]; rat, 14 days, 15 mg kg-1 once daily, average unbound plasma concentration, read-out: Avg Cp,u parent): 5.4 nM
Avg Cp,u metabolite ([4]; rat, 14 days, 40 mg kg-1 once daily): 2570 nM
concentration at 29 days ([4]; rat, 14 days, 40 mg kg-1 once daily, average unbound plasma concentration, read-out: Avg Cp,u parent): 58 nM
Avg Cp,u metabolite ([4]; rat, 14 days, 90 mg kg-1 once daily): 6350 nM
concentration at 29 days ([4]; rat, 14 days, 90 mg kg-1 once daily, average unbound plasma concentration, read-out: Avg Cp,u parent): 232 nM
Avg Cp,u metabolite ([4]; rat, 14 days, 200 mg kg-1 once daily): 17300 nM
concentration at 29 days ([4]; rat, 14 days, 200 mg kg-1 once daily, average unbound plasma concentration, read-out: Avg Cp,u parent): 1790 nM
